The record followed here is patent US20200123147A1, “THIAZOLE COMPOUNDS USEFUL AS PRMT5 INHIBITORS” (Bayer Aktiengesellschaft, priority 2017, published 2020).

In the assay the target is T1, PRMT5:MEP50 protein complex (Homo sapiens, UniProt O14744).
T1 construct: FLAG (N); made in house; host or cells: Hi5 insect cells
T1 sequence (O14744 whole entry, species assumed): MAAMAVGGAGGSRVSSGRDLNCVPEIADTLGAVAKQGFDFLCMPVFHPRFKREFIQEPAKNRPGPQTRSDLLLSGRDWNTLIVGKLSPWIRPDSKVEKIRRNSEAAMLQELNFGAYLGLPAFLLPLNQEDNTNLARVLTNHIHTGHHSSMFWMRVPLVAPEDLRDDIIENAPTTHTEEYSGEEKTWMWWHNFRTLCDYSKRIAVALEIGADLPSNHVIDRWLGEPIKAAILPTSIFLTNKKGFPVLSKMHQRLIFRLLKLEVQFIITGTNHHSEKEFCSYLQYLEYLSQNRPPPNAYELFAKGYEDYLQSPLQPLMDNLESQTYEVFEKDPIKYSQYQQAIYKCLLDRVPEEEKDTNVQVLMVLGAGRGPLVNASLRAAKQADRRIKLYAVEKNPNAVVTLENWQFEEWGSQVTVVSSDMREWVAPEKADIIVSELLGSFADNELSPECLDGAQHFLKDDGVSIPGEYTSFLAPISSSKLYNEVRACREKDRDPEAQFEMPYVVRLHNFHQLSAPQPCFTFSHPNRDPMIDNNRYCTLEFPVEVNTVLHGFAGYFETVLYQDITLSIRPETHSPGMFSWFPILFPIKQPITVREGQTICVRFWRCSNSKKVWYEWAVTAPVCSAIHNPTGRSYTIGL
T1 sequence (Q9BQA1 whole entry partner, species assumed): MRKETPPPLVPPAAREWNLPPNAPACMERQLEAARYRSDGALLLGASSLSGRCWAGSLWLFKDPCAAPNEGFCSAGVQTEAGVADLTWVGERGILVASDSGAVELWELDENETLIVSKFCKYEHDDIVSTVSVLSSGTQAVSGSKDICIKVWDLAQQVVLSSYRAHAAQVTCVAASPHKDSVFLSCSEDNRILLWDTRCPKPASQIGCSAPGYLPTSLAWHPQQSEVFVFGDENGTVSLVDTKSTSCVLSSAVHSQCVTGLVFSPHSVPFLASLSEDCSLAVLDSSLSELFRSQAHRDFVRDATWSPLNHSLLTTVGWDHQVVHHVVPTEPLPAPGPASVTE
The assay can be described thus: In vitro assay 1: PRMT5 SPA assay ("EAA"). The class given is biochemical. Particulars: scintillation proximity assay, methylation of biotinylated H4(1-24) peptide, 3H-SAM, 60 min at 22° C. An excerpt: In Vitro Assay 1: PRMT5 SPA Assay (“EAA”)
PRMT5 inhibitory activities of the compounds described in the present invention were quantified using a scintillation proximity assay (SPA) which measures methylation by the enzyme of a synthetic, biotinylated peptide corresponding to the N-terminal sequence of Histone H4 (a.a. 1-24). The peptide of sequence […]-K(Btn)-amide is commercially available (e.g. from Biosyntan) and will be herein referred to as H4(1-24). The PRMT5:MEP50 protein complex used in the assay was produced in house following standard protocols. Briefly, full length PRMT5 and MEP50 constructs respectively tagged with N-terminal FLAG and 6× His sequences were co-expressed in Hi5 insect cells, and the recombinant protein complex was purified by FLAG affinity and size exclusion chromatography.
In a typical assay 11 different concentrations of each compound (0.1 nM, 0.33 nM, 1.1 nM, 3.8 nM, 13 nM, 44 nM, 0.15 μM, 0.51 μM, 1.7 μM, 5.9 μM and 20 μM) were tested in duplicate within the same microtiter plate. To this end, 100-fold concentrated compound solutions (in DMSO) were previously prepared by serial dilution (1:3.4) of 2 mM stocks in a clear low volume 384-well source microtiter plate (Greiner Bio-One), from which 50 nl of compounds were transferred into a white low volume test microtiter plate from the same supplier. Subsequently, 2.5 μL PRMT5 in aqueous assay buffer [20 mM Bicine pH 8.0 (Alfa Aesar), 7.5 mM Tris(2-carboxyethyl) phosphine hydrochloride (TCEP, Sigma), 0.1% (w/v) bovine gamma globuline (BGG, Sigma), 0.002% (v/v) Tween-20 (Sigma)] were added to the compounds in the test plate to a final enzyme concentration of—typically—7.5 nM (this parameter was adjusted depending on the activity of the enzyme lot in order to be within the linear dynamic range of the assay). The samples were then incubated for 15 min at 22° C. to allow pre-equilibration of the putative enzyme-inhibitor complexes before the start of the methylation reaction, which was initiated by the addition of 2.5 μL 2-fold concentrated solution (in assay buffer) of “cold” S-Adenosyl-L-Methionine (SAM, Sigma, final concentration: 0.5 μM), tritiated 3H-SAM (Perkin Elmer, final concentration: 0.5 μM) and H4(1-24) peptide substrate (final concentration: 0.06 μM). The resulting mixture (5 μL final volume) was shortly centrifuged (2 min., 1500 rpm) and incubated at 22° C. during 60 min. Thereupon the reaction was stopped by adding 3 μL of Streptavidin PS SPA imaging beads (Perkin Elmer, final concentration of 0.375 μg/μL) and “cold” SAM (AK Scientific, 250 μM final concentration) for non-specific binding reduction. Plates containing the stopped reaction were sealed with transparent adhesive foil (Perkin Elmer), centrifuged (2 min., 1500 rpm), and further incubated either 1 h at 22° C. or overnight at 4° C. in order to allow the SPA signals to develop. Subsequently, the amount of product was evaluated by measuring the energy transfer from the β-particles emitted by the 3H-labeled substrate to the Europium scintillator co-polymerized in the polystyrene matrix of the PS imaging beads, using the standard settings for this purpose of a Viewlux (Perkin-Elmer) CCD plate imaging device (emission filter 613/55 (IFP).
The resulting scintillation counts were taken as indicator for the amount of methylated peptide per well. The data were normalised using two sets of control wells (typically 16 each) for high—(=enzyme reaction with DMSO instead of test compound=0%=minimum inhibition) and low—(=all assay components without enzyme=100%=maximum inhibition) PRMT5 activity. IC50 values were calculated by fitting the normalized inhibition data to a 4-parameter logistic equation using the “Screener” analysis software from Genedata.
A general note: Scintillation proximity formats need no separation of bound from free tracer.
The term IC50 denotes the concentration needed to halve the response being measured. A low value points to higher potency. For `CC(C)(C)c1cc(NC(=O)c2csc(Nc3ccccc3C(=O)Nc3cc4ccccc4cn3)n2)no1` [Example 47, N-(5-tert-Butyl-1,2-oxazol-3-yl)-2-{[2-(isoquinolin-3-ylcarbamoyl)phenyl]amino}-1,3-thiazole-4-carboxamide], the IC50 amounted to 1300 nM.
Under `Cc1ccc(Nc2nc(C(=O)Nc3cc(C(C)(C)C)on3)cs2)nc1` [Example 34, N-(5-tert-Butyl-1,2-oxazol-3-yl)-2-[(5-methylpyridin-2-yl)amino]-1,3-thiazole-4-carboxamide] stands 41.8 nM.
In the case of `CC(C)(C)c1cc(NC(=O)c2csc(NCc3ccco3)n2)no1` [Example 44, N-(5-tert-Butyl-1,2-oxazol-3-yl)-2-[(furan-2-ylmethyl)amino]-1,3-thiazole-4-carboxamide], it took 606 nM to reach half-maximal inhibition (IC50). This IC50 is about 14-fold higher than that of the compound before.
To `Cc1cccc(Nc2nc(C(=O)Nc3cc(C(C)(C)C)on3)cs2)c1` [Example 43, N-(5-tert-Butyl-1,2-oxazol-3-yl)-2-[(3-methylphenyl)amino]-1,3-thiazole-4-carboxamide] belongs 512 nM; to `CC(C)(C)c1cc(NC(=O)c2csc(Nc3ccc(F)c(Cl)c3)n2)no1` [Example 46, N-(5-tert-Butyl-1,2-oxazol-3-yl)-2-[(3-chloro-4-fluorophenyl)amino]-1,3-thiazole-4-carboxamide], 1200 nM.
Turning to `O=C(Nc1ccn(CCO)n1)c1csc(Nc2ccccc2)n1` [Example 28, N-[1-(2-Hydroxyethyl)-1H-pyrazol-3-yl]-2-(phenylamino)-1,3-thiazole-4-carboxamide], the IC50 stood at 9100 nM.
`CC(C)(C)c1cc(NC(=O)c2csc(Nc3ccccc3)n2)n[nH]1` [Example 16, N-(5-tert-Butyl-1H-pyrazol-3-yl)-2-(phenylamino)-1,3-thiazole-4-carboxamide] gave an IC50 of 438 nM.
For the compound `CC(C)(C)c1cc(NC(=O)c2csc(Nc3ccc(F)nc3)n2)no1` [Example 53, N-(5-tert-Butyl-1,2-oxazol-3-yl)-2-[(6-fluoropyridin-3-yl)amino]-1,3-thiazole-4-carboxamide], the IC50 amounted to 15200 nM.
Compound `CC(C)(C)c1cc(NC(=O)c2csc(Nc3cccc(F)c3F)n2)no1` [Example 52, N-(5-tert-Butyl-1,2-oxazol-3-yl)-2-[(2,3-difluorophenyl)amino]-1,3-thiazole-4-carboxamide] came in with an IC50 of 12300 nM. The IC50 values of the last two compounds are within 1.5-fold of each other.
The compound `C#Cc1cccc(Nc2nc(C(=O)Nc3cc(C(C)(C)C)on3)cs2)c1` [Example 51, N-(5-tert-Butyl-1,2-oxazol-3-yl)-2-[(3-ethynylphenyl)amino]-1,3-thiazole-4-carboxamide] displayed an IC50 of 10500 nM.
Under `O=C(Nc1nccs1)c1csc(Nc2ccc(Cl)cc2)n1` [Example 11, 2-[(4-Chlorophenyl)amino]-N-(1,3-thiazol-2-yl)-1,3-thiazole-4-carboxamide] stands 280 nM; under `CC(C)(C)c1cc(NC(=O)c2csc(Nc3ccc(F)c(F)c3)n2)no1` [Example 45, N-(5-tert-Butyl-1,2-oxazol-3-yl)-2-[(3,4-difluorophenyl)amino]-1,3-thiazole-4-carboxamide], 815 nM; under `CC(C)(C)c1cc(NC(=O)c2csc(NCc3cccc(F)c3)n2)no1` [Example 42, N-(5-tert-Butyl-1,2-oxazol-3-yl)-2-[(3-fluorobenzyl)amino]-1,3-thiazole-4-carboxamide], 508 nM.
Turning to `CC(C)(C)c1cc(NC(=O)c2csc(Nc3cccc(Cl)c3)n2)no1` [Example 48, N-(5-tert-Butyl-1,2-oxazol-3-yl)-2-[(3-chlorophenyl)amino]-1,3-thiazole-4-carboxamide], the IC50 was found to be 2990 nM.
For `CC(C)(C)c1cc(NC(=O)c2csc(NCC3CCCO3)n2)no1` (racemic) [Example 49, (rac)-N-(5-tert-Butyl-1,2-oxazol-3-yl)-2-{[-tetrahydrofuran-2-ylmethyl]amino}-1,3-thiazole-4-carboxamide], the IC50 was 5680 nM.
In turn, `CC(C)(C)c1cc(NC(=O)c2csc(Nc3ccc(C#N)cc3)n2)no1` [Example 24, N-(5-tert-Butyl-1,2-oxazol-3-yl)-2-[(4-cyanophenyl)amino]-1,3-thiazole-4-carboxamide] came in with an IC50 of 2540 nM.
`CC(C)(C)c1cc(NC(=O)c2csc(NC3CC3)n2)no1` [Example 32, N-(5-tert-Butyl-1,2-oxazol-3-yl)-2-(cyclopropylamino)-1,3-thiazole-4-carboxamide] gave an IC50 of 14700 nM. This IC50 is about 5.8-fold higher than that of the compound before.
The compound `N#Cc1c[nH]nc1NC(=O)c1csc(Nc2ccccc2)n1` [Example 30, N-(4-Cyano-1H-pyrazol-3-yl)-2-(phenylamino)-1,3-thiazole-4-carboxamide] gave an IC50 of 12000 nM.
On to `O=C(Nc1cnn(C2COC2)c1)c1csc(Nc2ccc(Cl)cc2)n1` [Example 31, 2-[(4-Chlorophenyl)amino]-N-[1-(oxetan-3-yl)-1H-pyrazol-4-yl]-1,3-thiazole-4-carboxamide], for which half-maximal inhibition (IC50) required 15100 nM.
`CC(C)(C)c1cc(NC(=O)c2csc(Nc3ccc4c(c3)CCC4)n2)no1` [Example 38, N-(5-tert-Butyl-1,2-oxazol-3-yl)-2-(2,3-dihydro-1H-inden-5-ylamino)-1,3-thiazole-4-carboxamide] came in with an IC50 of 160 nM.
To `CC(C)(C)c1cc(NC(=O)c2csc(Nc3ccc(Cl)cn3)n2)no1` [Example 35, N-(5-tert-Butyl-1,2-oxazol-3-yl)-2-[(5-chloropyridin-2-yl)amino]-1,3-thiazole-4-carboxamide] belongs 49.6 nM; to `O=C(c1csc(Nc2ccc(Cl)cc2)n1)N1CCC(N2CCc3ccccc3C2)CC1` [Example 27, {2-[(4-Chlorophenyl)amino]-1,3-thiazol-4-yl}{4-[3,4-dihydroisoquinolin-2(1H)-yl]piperidin-1-yl}methanone], 7610 nM.
`CC(C)(C)c1cc(NC(=O)c2csc(Nc3ccc(F)cn3)n2)no1` [Example 6, N-(5-tert-Butyl-1,2-oxazol-3-yl)-2-[(5-fluoropyridin-2-yl)amino]-1,3-thiazole-4-carboxamide] had a concentration for half-maximal inhibition (IC50) of 118 nM.
Consider `CC(C)(C)c1cc(NC(=O)c2csc(NCCc3ccccc3)n2)no1` [Example 37, N-(5-tert-Butyl-1,2-oxazol-3-yl)-2-[(2-phenylethyl)amino]-1,3-thiazole-4-carboxamide], for which the IC50 stood at 119 nM.
To `Cc1cc(F)ccc1Nc1nc(C(=O)Nc2cc(C(C)(C)C)on2)cs1` [Example 50, N-(5-tert-Butyl-1,2-oxazol-3-yl)-2-[(4-fluoro-2-methylphenyl)amino]-1,3-thiazole-4-carboxamide] belongs 6710 nM; to `CC(C)(C)c1cc(NC(=O)c2csc(Nc3ccc4ccoc4c3)n2)no1` [Example 40, 2-(1-Benzofuran-6-ylamino)-N-(5-tert-butyl-1,2-oxazol-3-yl)-1,3-thiazole-4-carboxamide], 350 nM; to `CC(C)(C)c1cc(NC(=O)c2csc(Nc3ccc(Cl)c(F)c3)n2)no1` [Example 39, N-(5-tert-Butyl-1,2-oxazol-3-yl)-2-[(4-chloro-3-fluorophenyl)amino]-1,3-thiazole-4-carboxamide], 183 nM.
Under `CC(C)(C)c1cc(NC(=O)c2csc(Nc3ccccc3F)n2)no1` [Example 25, N-(5-tert-Butyl-1,2-oxazol-3-yl)-2-[(2-fluorophenyl)amino]-1,3-thiazole-4-carboxamide] stands 2490 nM.
Turning to `O=C(NCCCN1CCc2ccccc2C1)c1csc(Nc2ccc(Cl)cc2)n1` [Example 26, 2-[(4-Chlorophenyl)amino]-N-[3-(3,4-dihydroisoquinolin-2(1H)-yl)propyl]-1,3-thiazole-4-carboxamide], the IC50 is 7850 nM.
